Experimental data reported in patent US12522583B2, “Benzimidazole derivatives and aza-benzimidazole derivatives as Janus kinase 2 inhibitors and uses thereof” (Dana-Farber Cancer Institute, Inc., priority 2018, dated 2026).

How the values were obtained:
Test in all cases: KINOMEscan
Format in all cases: binding
[1] = biological target: ABL1(E255K)-phosphorylated (Homo sapiens (Human), UniProt P00519, E255K); settings: read-out: percent control
From the text: (§1) Example 2. In Vitro Kinase Selectivity Profiling of the Compounds of the Present Disclosure

[2] = biological target: ABL1(Q252H)-nonphosphorylated (Homo sapiens (Human), UniProt P00519, Q252H); settings: read-out: percent control
From the text: as §1

[3] = biological target: AKT2 (Homo sapiens (Human), UniProt P31751); settings: read-out: percent control
From the text: as §1

[4] = biological target: BMPR1B (Homo sapiens (Human), UniProt O00238); settings: read-out: percent control
Sequence of BMPR1B (O00238 14-502): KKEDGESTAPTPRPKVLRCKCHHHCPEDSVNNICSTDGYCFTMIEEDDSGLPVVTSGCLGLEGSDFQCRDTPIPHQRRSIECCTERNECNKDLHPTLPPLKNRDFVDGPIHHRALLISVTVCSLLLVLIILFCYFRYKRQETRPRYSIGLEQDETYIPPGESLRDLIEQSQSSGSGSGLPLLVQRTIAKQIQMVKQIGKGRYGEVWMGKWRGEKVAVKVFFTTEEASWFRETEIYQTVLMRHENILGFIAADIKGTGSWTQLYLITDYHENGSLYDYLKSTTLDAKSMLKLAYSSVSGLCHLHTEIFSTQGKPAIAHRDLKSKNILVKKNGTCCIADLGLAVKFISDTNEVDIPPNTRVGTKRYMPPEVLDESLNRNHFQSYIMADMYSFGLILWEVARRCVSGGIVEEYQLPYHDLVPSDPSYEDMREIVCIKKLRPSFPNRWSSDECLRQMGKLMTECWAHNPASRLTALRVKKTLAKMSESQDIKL
From the text: as §1

[5] = biological target: CASK (Homo sapiens (Human), UniProt O14936); settings: read-out: percent control
From the text: as §1

[6] = biological target: CDC2L5 (Homo sapiens (Human), UniProt Q14004); settings: read-out: percent control
From the text: as §1

[7] = biological target: CDK4-cyclinD3 (Homo sapiens (Human), UniProt P11802); settings: read-out: percent control
From the text: as §1

[8] = biological target: CSK (Homo sapiens (Human), UniProt P41240); settings: read-out: percent control
Sequence of CSK (P41240 whole entry): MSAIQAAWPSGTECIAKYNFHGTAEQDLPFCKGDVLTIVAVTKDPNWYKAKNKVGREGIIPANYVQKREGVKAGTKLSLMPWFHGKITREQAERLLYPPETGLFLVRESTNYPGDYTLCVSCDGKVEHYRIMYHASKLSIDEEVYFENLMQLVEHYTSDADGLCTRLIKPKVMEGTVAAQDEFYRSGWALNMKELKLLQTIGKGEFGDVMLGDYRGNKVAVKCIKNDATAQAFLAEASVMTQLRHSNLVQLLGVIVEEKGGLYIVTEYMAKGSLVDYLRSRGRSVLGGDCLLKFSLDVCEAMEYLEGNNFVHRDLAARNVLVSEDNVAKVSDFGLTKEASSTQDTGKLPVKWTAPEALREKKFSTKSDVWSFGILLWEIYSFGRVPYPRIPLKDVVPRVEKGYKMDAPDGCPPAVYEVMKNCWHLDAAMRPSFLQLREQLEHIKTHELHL
From the text: as §1

[9] = biological target: CSNK1G1 (Homo sapiens (Human), UniProt Q9HCP0); settings: read-out: percent control
From the text: as §1

[10] = biological target: CSNK1G3 (Homo sapiens (Human), UniProt Q9Y6M4); settings: read-out: percent control
Sequence of CSNK1G3 (Q9Y6M4 whole entry): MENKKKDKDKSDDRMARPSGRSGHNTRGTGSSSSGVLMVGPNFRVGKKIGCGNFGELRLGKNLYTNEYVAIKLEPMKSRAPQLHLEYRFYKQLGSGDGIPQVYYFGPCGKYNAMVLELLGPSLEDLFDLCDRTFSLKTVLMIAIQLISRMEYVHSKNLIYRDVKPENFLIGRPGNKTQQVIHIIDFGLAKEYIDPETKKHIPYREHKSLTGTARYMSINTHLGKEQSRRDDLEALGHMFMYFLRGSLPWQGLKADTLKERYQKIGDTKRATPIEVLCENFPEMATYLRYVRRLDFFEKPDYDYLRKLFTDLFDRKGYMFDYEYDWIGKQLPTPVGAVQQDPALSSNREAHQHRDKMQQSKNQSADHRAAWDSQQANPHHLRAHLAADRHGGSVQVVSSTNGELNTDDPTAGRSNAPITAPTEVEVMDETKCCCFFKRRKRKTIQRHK
From the text: as §1

[11] = biological target: DCAMKL3 (Homo sapiens (Human), UniProt Q9C098); settings: read-out: percent control
Sequence of DCAMKL3 (Q9C098 whole entry, looked up): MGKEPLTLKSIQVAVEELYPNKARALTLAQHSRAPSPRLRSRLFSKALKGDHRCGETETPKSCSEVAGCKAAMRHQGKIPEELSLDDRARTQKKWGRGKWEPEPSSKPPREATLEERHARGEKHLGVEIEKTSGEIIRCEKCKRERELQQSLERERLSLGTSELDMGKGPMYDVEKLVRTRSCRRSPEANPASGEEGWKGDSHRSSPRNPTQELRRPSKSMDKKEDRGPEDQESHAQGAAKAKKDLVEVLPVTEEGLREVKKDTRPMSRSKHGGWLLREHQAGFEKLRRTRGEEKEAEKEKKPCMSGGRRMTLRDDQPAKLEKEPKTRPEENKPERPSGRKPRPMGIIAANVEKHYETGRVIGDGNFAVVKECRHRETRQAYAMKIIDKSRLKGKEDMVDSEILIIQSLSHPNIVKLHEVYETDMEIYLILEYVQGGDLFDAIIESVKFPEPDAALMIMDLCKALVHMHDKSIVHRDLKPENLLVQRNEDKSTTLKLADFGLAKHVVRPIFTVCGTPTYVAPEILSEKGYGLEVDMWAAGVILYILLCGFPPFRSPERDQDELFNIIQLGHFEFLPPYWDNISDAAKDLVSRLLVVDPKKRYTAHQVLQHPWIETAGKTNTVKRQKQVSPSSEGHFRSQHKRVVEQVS
From the text: as §1

[12] = biological target: EGFR(G719C) (Homo sapiens (Human), UniProt P00533, G719C); settings: read-out: percent control
From the text: as §1

[13] = tested on: EGFR(L747-T751del, Sins); settings: 1 μM
From the text: as §1

[14] = biological target: EPHA8 (Homo sapiens (Human), UniProt P29322); settings: read-out: percent control
From the text: as §1

[15] = biological target: ERK8 (Homo sapiens (Human), UniProt Q8TD08); settings: read-out: percent control
From the text: as §1

[16] = biological target: FES (Homo sapiens (Human), UniProt P07332); settings: read-out: percent control
From the text: as §1

[17] = biological target: FGR (Homo sapiens (Human), UniProt P09769); settings: read-out: percent control
From the text: as §1

[18] = biological target: FYN (Homo sapiens (Human), UniProt P06241); settings: read-out: percent control
Sequence of FYN (P06241 whole entry): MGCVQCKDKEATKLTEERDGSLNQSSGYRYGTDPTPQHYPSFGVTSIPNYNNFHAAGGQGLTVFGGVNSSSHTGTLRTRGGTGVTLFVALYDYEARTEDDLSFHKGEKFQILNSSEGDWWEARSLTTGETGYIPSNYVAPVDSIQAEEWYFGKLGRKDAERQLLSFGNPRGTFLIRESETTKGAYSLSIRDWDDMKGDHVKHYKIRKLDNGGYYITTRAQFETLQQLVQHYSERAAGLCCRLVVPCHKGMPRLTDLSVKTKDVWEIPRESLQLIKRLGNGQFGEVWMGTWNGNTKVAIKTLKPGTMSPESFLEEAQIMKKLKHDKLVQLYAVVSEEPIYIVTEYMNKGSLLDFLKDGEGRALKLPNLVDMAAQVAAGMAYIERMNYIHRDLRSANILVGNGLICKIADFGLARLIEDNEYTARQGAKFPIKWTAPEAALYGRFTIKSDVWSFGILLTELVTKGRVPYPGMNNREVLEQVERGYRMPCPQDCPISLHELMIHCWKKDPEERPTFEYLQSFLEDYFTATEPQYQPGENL
From the text: as §1

[19] = biological target: GRK4 (Homo sapiens (Human), UniProt P32298); settings: read-out: percent control
Sequence of GRK4 (P32298 whole entry): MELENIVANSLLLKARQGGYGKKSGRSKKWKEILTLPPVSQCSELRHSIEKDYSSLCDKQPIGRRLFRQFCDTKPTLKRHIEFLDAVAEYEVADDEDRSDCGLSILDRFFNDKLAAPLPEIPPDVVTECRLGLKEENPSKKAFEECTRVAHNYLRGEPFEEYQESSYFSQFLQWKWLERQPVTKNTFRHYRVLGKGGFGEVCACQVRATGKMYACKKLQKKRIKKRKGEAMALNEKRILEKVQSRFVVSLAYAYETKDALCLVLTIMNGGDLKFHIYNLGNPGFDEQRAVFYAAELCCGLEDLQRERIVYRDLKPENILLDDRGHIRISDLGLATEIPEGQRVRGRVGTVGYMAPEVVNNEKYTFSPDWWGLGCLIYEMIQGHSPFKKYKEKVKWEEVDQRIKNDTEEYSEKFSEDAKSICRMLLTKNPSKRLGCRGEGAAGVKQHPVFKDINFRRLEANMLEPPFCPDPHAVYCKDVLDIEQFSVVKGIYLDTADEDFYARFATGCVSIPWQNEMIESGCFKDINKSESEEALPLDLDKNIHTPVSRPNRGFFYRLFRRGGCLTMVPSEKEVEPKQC
From the text: as §1

[20] = biological target: GSK3A (Homo sapiens (Human), UniProt P49840); settings: read-out: percent control
From the text: as §1

[21] = biological target: KIT(V559D, V654A) (Homo sapiens (Human), UniProt P10721, V559D/V654A); settings: read-out: percent control
From the text: as §1

[22] = biological target: LIMK1 (Homo sapiens (Human), UniProt P53667); settings: read-out: percent control
From the text: as §1

[23] = biological target: MAP3K4 (Homo sapiens (Human), UniProt Q9Y6R4); settings: read-out: percent control
From the text: as §1

[24] = biological target: MST1R (Homo sapiens (Human), UniProt Q04912); settings: read-out: percent control
From the text: as §1

[25] = biological target: OSR1 (Homo sapiens (Human), UniProt O95747); settings: read-out: percent control
From the text: as §1

[26] = biological target: PKAC-alpha (Homo sapiens (Human), UniProt P17612); settings: read-out: percent control
From the text: as §1

[27] = biological target: PLK1 (Homo sapiens (Human), UniProt P53350); settings: read-out: percent control
From the text: as §1

[28] = biological target: PRKCE (Homo sapiens (Human), UniProt Q02156); settings: read-out: percent control
From the text: as §1

[29] = biological target: PRKR (Homo sapiens (Human), UniProt P19525); settings: read-out: percent control
From the text: as §1

[30] = biological target: RET(M918T) (Homo sapiens (Human), UniProt P07949, M918T); settings: read-out: percent control
From the text: as §1

[31] = biological target: RIPK5 (Homo sapiens (Human), UniProt Q6XUX3); settings: read-out: percent control
From the text: as §1

[32] = biological target: RPS6KA4(Kin.Dom.1-terminal) (Homo sapiens (Human), UniProt O75676); settings: read-out: percent control
Sequence of RPS6KA4(Kin.Dom.1-terminal) (O75676 33-301 limits assumed): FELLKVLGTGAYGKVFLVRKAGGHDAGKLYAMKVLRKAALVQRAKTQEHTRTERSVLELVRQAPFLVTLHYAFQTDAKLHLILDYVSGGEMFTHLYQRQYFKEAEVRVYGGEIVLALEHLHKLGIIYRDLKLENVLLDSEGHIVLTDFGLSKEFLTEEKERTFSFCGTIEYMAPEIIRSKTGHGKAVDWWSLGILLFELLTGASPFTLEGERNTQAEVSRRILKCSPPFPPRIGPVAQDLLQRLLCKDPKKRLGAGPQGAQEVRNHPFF
From the text: as §1

[33] = biological target: RPS6KA5(Kin.Dom.1-terminal) (Homo sapiens (Human), UniProt O75582); settings: read-out: percent control
From the text: as §1

[34] = biological target: RSK2(Kin.Dom.1-N-terminal) (Homo sapiens (Human), UniProt P51812); settings: read-out: percent control
Sequence of RSK2(Kin.Dom.1-N-terminal) (P51812 68-327 limits assumed): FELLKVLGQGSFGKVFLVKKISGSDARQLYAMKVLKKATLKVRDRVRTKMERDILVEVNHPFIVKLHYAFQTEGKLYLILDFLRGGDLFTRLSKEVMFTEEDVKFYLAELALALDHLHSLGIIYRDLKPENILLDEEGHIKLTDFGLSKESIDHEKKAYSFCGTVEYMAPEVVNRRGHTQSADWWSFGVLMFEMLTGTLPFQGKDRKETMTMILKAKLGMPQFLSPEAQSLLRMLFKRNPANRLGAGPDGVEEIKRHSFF
From the text: as §1

[35] = biological target: RSK4(Kin.Dom.2-C-terminal) (Homo sapiens (Human), UniProt Q9UK32); settings: read-out: percent control
Sequence of RSK4(Kin.Dom.2-C-terminal) (Q9UK32 426-683 limits assumed): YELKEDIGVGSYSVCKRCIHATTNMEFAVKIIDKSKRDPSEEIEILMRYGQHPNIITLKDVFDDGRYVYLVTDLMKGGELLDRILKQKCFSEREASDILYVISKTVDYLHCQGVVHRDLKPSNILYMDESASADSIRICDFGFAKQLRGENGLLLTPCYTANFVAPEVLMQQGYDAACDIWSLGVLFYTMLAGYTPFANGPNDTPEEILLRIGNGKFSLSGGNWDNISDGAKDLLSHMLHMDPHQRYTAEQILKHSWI
From the text: as §1

[36] = biological target: SIK (Homo sapiens (Human), UniProt P57059); settings: read-out: percent control
From the text: as §1

[37] = biological target: SIK2 (Homo sapiens (Human), UniProt Q9H0K1); settings: read-out: percent control
From the text: as §1

[38] = biological target: SRPK3 (Homo sapiens (Human), UniProt Q9UPE1); settings: read-out: percent control
From the text: as §1

[39] = biological target: TAOK3 (Homo sapiens (Human), UniProt Q9H2K8); settings: read-out: percent control
Sequence of TAOK3 (Q9H2K8 whole entry): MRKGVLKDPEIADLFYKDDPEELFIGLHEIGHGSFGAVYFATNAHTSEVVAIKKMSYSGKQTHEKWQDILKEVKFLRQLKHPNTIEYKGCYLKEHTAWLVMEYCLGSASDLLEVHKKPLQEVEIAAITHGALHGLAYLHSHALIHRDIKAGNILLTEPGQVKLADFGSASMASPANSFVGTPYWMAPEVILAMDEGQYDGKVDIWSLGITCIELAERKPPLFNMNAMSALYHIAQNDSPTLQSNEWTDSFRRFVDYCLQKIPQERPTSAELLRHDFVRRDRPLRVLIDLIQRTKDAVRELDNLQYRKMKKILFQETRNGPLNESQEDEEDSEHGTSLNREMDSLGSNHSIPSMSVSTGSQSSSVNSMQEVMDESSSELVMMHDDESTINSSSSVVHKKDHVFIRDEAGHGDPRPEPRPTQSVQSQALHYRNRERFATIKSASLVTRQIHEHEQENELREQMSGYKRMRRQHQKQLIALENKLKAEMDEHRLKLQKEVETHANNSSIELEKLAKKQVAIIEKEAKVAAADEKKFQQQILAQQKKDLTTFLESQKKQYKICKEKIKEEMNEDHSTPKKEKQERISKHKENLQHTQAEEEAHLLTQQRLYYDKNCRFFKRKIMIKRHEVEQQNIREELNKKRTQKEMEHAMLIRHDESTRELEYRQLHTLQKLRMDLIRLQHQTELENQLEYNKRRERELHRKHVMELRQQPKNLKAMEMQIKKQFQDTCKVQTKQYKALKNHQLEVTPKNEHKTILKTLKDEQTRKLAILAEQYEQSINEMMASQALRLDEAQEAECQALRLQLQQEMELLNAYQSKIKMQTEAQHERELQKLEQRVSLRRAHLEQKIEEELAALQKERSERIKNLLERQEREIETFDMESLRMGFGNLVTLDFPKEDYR
From the text: as §1

[40] = biological target: TIE2 (Homo sapiens (Human), UniProt Q02763); settings: read-out: percent control
From the text: as §1

Structure (SMILES) | remaining binding at 1 µM [1] [%] | remaining binding at 1 µM [2] [%] | remaining binding at 1 µM [3] [%] | remaining binding at 1 µM [4] [%] | remaining binding at 1 µM [5] [%] | remaining binding at 1 µM [6] [%] | remaining binding at 1 µM [7] [%] | remaining binding at 1 µM [8] [%] | remaining binding at 1 µM [9] [%] | remaining binding at 1 µM [10] [%] | remaining binding at 1 µM [11] [%] | remaining binding at 1 µM [12] [%] | percent control [13] [%] | remaining binding at 1 µM [14] [%] | remaining binding at 1 µM [15] [%] | remaining binding at 1 µM [16] [%] | remaining binding at 1 µM [17] [%] | remaining binding at 1 µM [18] [%] | remaining binding at 1 µM [19] [%] | remaining binding at 1 µM [20] [%] | also measured
CCN1CCN(Cc2ccc(Nc3nc4ccc(Oc5ccnc(NC(C)=O)c5)cc4n3C)cc2C(F)(F)F)CC1 [Compound I-2] | 30 | 0 | 100 | 84 | 78 | 59 | 72 | 63 | 100 | 89 | 85 | 97 | 98 | 43 | 79 | 100 | 100 | 80 | 99 | 85 | remaining binding at 1 µM [21]: 7.4%; remaining binding at 1 µM [22]: 100%; remaining binding at 1 µM [23]: 100%; remaining binding at 1 µM [24]: 80%; remaining binding at 1 µM [25]: 100%; remaining binding at 1 µM [26]: 65%; remaining binding at 1 µM [27]: 100%; remaining binding at 1 µM [28]: 100%; remaining binding at 1 µM [29]: 39%; remaining binding at 1 µM [30]: 0.8%; remaining binding at 1 µM [31]: 69%; remaining binding at 1 µM [32]: 100%; remaining binding at 1 µM [33]: 96%; remaining binding at 1 µM [34]: 95%; remaining binding at 1 µM [35]: 86%; remaining binding at 1 µM [36]: 95%; remaining binding at 1 µM [37]: 100%; remaining binding at 1 µM [38]: 100%; remaining binding at 1 µM [39]: 41%; remaining binding at 1 µM [40]: 81%
CCN1CCN(Cc2ccc(Nc3nc4ccc(Oc5ccnc(NC(C)=O)c5)c(C)c4n3C)cc2C(F)(F)F)CC1 [Compound I-6, N-(4-(2-(4-((4-ethylpiperazin-1-yl)methyl)-3-(trifluoromethyl)phenylamino)-1,7-dimethyl-1H-benzo[d]imidazol-6-yloxy)pyridin-2-yl)acetamide] | 33 | 1.9 | 100 | 89 | 87 | 3.8 | 95 | 87 | 100 | 94 | 95 | 94 | 100 | 2.5 | 75 | 82 | 51 | 49 | 81 | 93 | remaining binding at 1 µM [21]: 19%; remaining binding at 1 µM [22]: 65%; remaining binding at 1 µM [23]: 60%; remaining binding at 1 µM [24]: 83%; remaining binding at 1 µM [25]: 87%; remaining binding at 1 µM [26]: 57%; remaining binding at 1 µM [27]: 71%; remaining binding at 1 µM [28]: 92%; remaining binding at 1 µM [29]: 64%; remaining binding at 1 µM [30]: 0.15%; remaining binding at 1 µM [31]: 61%; remaining binding at 1 µM [32]: 93%; remaining binding at 1 µM [33]: 74%; remaining binding at 1 µM [34]: 83%; remaining binding at 1 µM [35]: 97%; remaining binding at 1 µM [36]: 98%; remaining binding at 1 µM [37]: 97%; remaining binding at 1 µM [38]: 87%; remaining binding at 1 µM [39]: 13%; remaining binding at 1 µM [40]: 36%
